The results in this text go back to PubChem BioAssay AID1224920 (Broad Institute, 2016).

One may read the IC50 as the concentration that gives 50% inhibition.

This experiment has as its system Clostridium difficile clinical isolate growth, OD600, 24 h. The experiment is described as follows: growth modulation of Clostridium difficile isolate – OD600, 9-point, retest, dose response (AID 1224920).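 Note: inhibitors lower culture turbidity so OD600 falls.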

Where “and” joins values, the source holds several entries; their conditions need not be identical. Identical values can stand only once. Calls of active or inactive are those of the source.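 Rule for the calls: active = IC50 no higher than ten times the top tested dose; inconclusive = flat fit with 30 to 70% inhibition, or poor fit; inactive = IC50 above ten times the top dose.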 A value given as a limit tells only on which side of the number the result lay.

In the case of `COc1cccc(S(=O)(=O)N2C[C@@H]3N[C@H](C2)C3c2ccc(-c3ccccc3F)cc2)c1` (some centres undefined), the 50% inhibitory concentration (IC50) was 26 µM.
Regarding `COc1ccc(C#Cc2ccc([C@H]3[C@@H](CO)N4CCCCN(C(=O)Nc5cccc(F)c5)C[C@H]34)cc2)cc1`, the half-maximal inhibitory concentration (IC50) was 4.44 µM.
Then `COc1ccc(S(=O)(=O)N2CCCCN3[C@@H](CO)[C@@H](c4ccc(C#CCC(C)C)cc4)[C@@H]3C2)cc1`, with 13.6 µM; and `CC(C)CC#Cc1ccc([C@H]2[C@@H](CO)N3CCCCN(C(=O)Nc4ccccc4)C[C@H]23)cc1`, with 12.8 µM.
As to `O=C(Nc1ccccc1F)N1CCCCN2[C@@H](CO)[C@@H](c3ccc(/C=C/c4ccccc4)cc3)[C@@H]2C1`, the IC50 was 11.5 µM.
With `Cc1ccccc1S(=O)(=O)N1CCCCN2[C@H](CO)[C@H](c3ccc(-c4cccc(F)c4)cc3)[C@H]2C1`, the IC50 was 11.3 µM.
Then `C/C=C/c1ccc(C2[C@H]3CNC[C@@H]2N3Cc2cccc(F)c2)cc1` (some centres undefined), with 31.1 µM; and `OC[C@@H]1Nc2ccc(C#Cc3cccc(F)c3)cc2[C@H]2NCC[C@@H]12`, with 38.3 µM; and `CC(C)CC#Cc1ccc([C@@H]2[C@H](CO)N3CCCCN(C(=O)Nc4ccccc4)C[C@@H]23)cc1`, with 13.1 µM.
Then `COc1ccc(C#Cc2ccc([C@H]3[C@H](CO)N4CCCCN(C(=O)Nc5ccc(F)cc5)C[C@@H]34)cc2)cc1`, with 5.67 µM; and `Cc1cccc(-c2ccc(C3[C@@H]4CN(C(=O)Nc5ccc(F)cc5)C[C@H]3N4)cc2)c1` (some centres undefined), with 12.2 µM; and `N#Cc1ccc(-c2ccc3c(c2)[C@H]2[C@H](CCN2Cc2ccc4c(c2)OCO4)[C@H](CO)N3)cc1`, with 23.4 µM.
Then `Cc1ccccc1-c1ccc(C2[C@@H]3CN(Cc4ccc5c(c4)OCO5)C[C@H]2N3)cc1` (some centres undefined), with 5.63 µM and 15.6 µM.
In the case of `N#Cc1cccc(-c2ccc(C3[C@@H]4CN(C(=O)Nc5ccc(C(F)(F)F)cc5)C[C@H]3N4)cc2)c1` (some centres undefined), the 50% inhibitory concentration (IC50) was 11.8 µM and 7.72 µM.
Take `O=S(=O)(Cc1ccccc1)N1CCCCN2[C@H](CO)[C@@H](c3ccc(C#Cc4ccccc4)cc3)[C@H]2C1`: the IC50 is > 240 µM (inactive).
On to `O=C(C1CCCC1)N1C[C@@H]2N[C@H](C1)C2c1ccc(/C=C/c2ccccc2)cc1` (some centres undefined), for which the IC50 was 30.1 µM.
Turning to `O=S(=O)(c1ccccc1F)N1C[C@@H]2N[C@H](C1)C2c1ccc(/C=C/c2ccccc2)cc1` (some centres undefined), the IC50 is 19.4 µM.
Regarding `COc1ccc(C#Cc2ccc([C@@H]3[C@H]4CN(Cc5ccccc5F)CCCCN4[C@H]3CO)cc2)cc1`, the half-maximal inhibitory concentration (IC50) was 13.7 µM.
`Fc1cccc(-c2ccc(C3[C@H]4CNC[C@@H]3N4Cc3ccccc3F)cc2)c1` (some centres undefined): the IC50 is 60.5 µM.
Consider `O=C(NC[C@@H]1N[C@@H](CO)[C@H]1c1ccc(C2=CCCCC2)cc1)c1ccc(F)cc1`, for which the IC50 is 57.8 µM.
Regarding `O=C(C1CCC1)N1C[C@@H]2N[C@H](C1)C2c1ccc(/C=C/c2ccccc2)cc1` (some centres undefined), the concentration for half-maximal inhibition (IC50) was 74.4 µM.
Then `O=C(Nc1ccccc1)N1CCCCN2[C@H](CO)[C@@H](c3ccc(C#Cc4ccccc4)cc3)[C@H]2C1`, with 33.5 µM; and `O=C(C[C@@H]1CC[C@H]2[C@@H](COC[C@@H](O)CN2C(=O)Nc2ccc(Cl)c(Cl)c2)O1)NC1CCC1`, with 8 µM; and `O=C(C[C@@H]1CC[C@@H]2[C@H](COC[C@H](O)CN2C(=O)Nc2ccc(C(F)(F)F)cc2)O1)NC1Cc2ccccc2C1`, with 17.5 µM.
With `COc1ccc(C#Cc2ccc([C@@H]3[C@@H](CO)N4CCCCN(C(=O)Nc5ccc(F)cc5)C[C@H]34)cc2)cc1`, the IC50 was 20.6 µM.
Regarding `O=C(Nc1cccc(F)c1)N1CCCCN2[C@H](CO)[C@@H](c3ccc(-c4ccccc4F)cc3)[C@H]2C1`, the IC50 is 29.7 µM.
As for `Cc1ccccc1-c1ccc([C@@H]2[C@H](CO)N3CCCCN(C(=O)Nc4ccc(F)cc4)C[C@@H]23)cc1`, the IC50 was 13.9 µM.
`O=C(C[C@H]1CC[C@H]2[C@@H](COC[C@@H](O)CN2C(=O)Nc2ccc(C(F)(F)F)cc2)O1)NCC1CCCCC1`: the IC50 is 6.01 µM.
As to `Cc1ccc(-c2ccc(C3[C@H]4CNC[C@@H]3N4S(=O)(=O)c3cccc(C)c3)cc2)cc1` (some centres undefined), the IC50 was 30.3 µM.
With `Cc1ccc(-c2ccc([C@@H]3[C@H](CO)N4CCCCN(C(=O)c5ccc(F)cc5)C[C@@H]34)cc2)cc1`, the IC50 is 24.3 µM.
With `O=C(NC[C@@H]1N[C@@H](CO)[C@H]1c1ccc(C2=CCCCC2)cc1)c1ccccc1`, the 50% inhibitory concentration (IC50) was 65.8 µM.
With `O=C(NC1CCCCC1)N1C[C@@H]2N[C@H](C1)C2c1ccc(-c2ccc(F)cc2)cc1` (some centres undefined), the IC50 was 59.7 µM.
On to `COc1ccccc1-c1ccc(C2[C@@H]3CN(S(=O)(=O)c4ccccc4C)C[C@H]2N3)cc1` (some centres undefined), for which the IC50 is 28.1 µM.
With `CCCNC(=O)C[C@@H]1CC[C@H]2[C@@H](COC[C@@H](O)CN2C(=O)Nc2ccc(Cl)c(Cl)c2)O1`, the IC50 was 8.45 µM.
Regarding `COc1ccc(-c2ccc(C3[C@@H]4CN(Cc5cccc(OC)c5)C[C@H]3N4)cc2)cc1` (some centres undefined), the IC50 was 38.5 µM and 16.2 µM.
On to `Cc1ccc(-c2ccc([C@H]3[C@@H](CO)N4CCCCN(C(=O)c5ccc(F)cc5)C[C@H]34)cc2)cc1`, for which the half-inhibitory concentration (IC50) was 30.7 µM.
Then `OC[C@H]1[C@@H](c2ccc(C#CC3CCCC3)cc2)[C@@H]2CN(CCC(F)(F)F)CCCCN12`, with 48.2 µM.
Consider `Cc1ccccc1-c1ccc(C2[C@H]3CNC[C@@H]2N3S(=O)(=O)c2ccc(Cl)cc2)cc1` (some centres undefined), for which the IC50 is 35.8 µM.
For the molecule `O=C(C1CCCCC1)N1C[C@@H]2N[C@H](C1)C2c1ccc(-c2cccc(F)c2)cc1` (some centres undefined), the concentration for half-maximal inhibition (IC50) is 67.8 µM.
`COc1ccccc1CN1CC[C@@H]2[C@H]1c1cc(C#Cc3ccccc3)ccc1N[C@@H]2CO`: the IC50 is 26.2 µM.
Then `O=C(Nc1ccc(F)cc1)N1C[C@@H]2N[C@H](C1)C2c1ccc(/C=C/c2ccccc2)cc1` (some centres undefined), with 5.52 µM and 10 µM; and `C/C=C/c1ccc(C2[C@@H]3CN(Cc4cccc(F)c4)C[C@H]2N3)cc1` (some centres undefined), with 14.3 µM and 27.3 µM; and `O=C(Nc1ccccc1)N1CCCCN2[C@@H](CO)[C@@H](c3ccc(-c4ccccc4F)cc3)[C@@H]2C1`, with 27.9 µM.
As for `Cc1ccc(-c2ccc([C@@H]3[C@H](CO)N4CCCCN(S(=O)(=O)c5cccc(C)c5)C[C@@H]34)cc2)cc1`, the IC50 is 18.2 µM.
As for `O=C(Nc1ccccc1)N1C[C@@H]2N[C@H](C1)[C@@H]2c1ccc(/C=C/c2ccccc2)cc1`, the figure is 13 µM.
Then `Cc1ccc(-c2ccc(C3[C@@H]4CN(Cc5cccc(F)c5)C[C@H]3N4)cc2)cc1` (some centres undefined), with 2.8 µM and 12.6 µM; and `Cc1cccc(-c2ccc([C@H]3[C@H](CO)N4CCCCN(CCC(F)(F)F)C[C@@H]34)cc2)c1`, with 68.9 µM.
Consider `O=C(Nc1ccc(C(F)(F)F)cc1)N1[C@@H]2CNC[C@H]1C2c1ccc(/C=C/c2ccccc2)cc1` (some centres undefined), for which the half-maximal inhibitory concentration (IC50) is 19.5 µM and 4.14 µM.
On to `COc1ccc(C#Cc2ccc([C@H]3[C@H](CO)N4CCCCN(Cc5ccccc5F)C[C@@H]34)cc2)cc1`, for which the half-inhibitory concentration (IC50) is 11 µM.
As for `O=C(C[C@@H]1CC[C@@H]2[C@H](COC[C@H](O)CN2C(=O)Nc2ccc(C(F)(F)F)cc2)O1)NCC1CCCCC1`, the half-inhibitory concentration (IC50) is 7.67 µM.
Regarding `COc1ccc(-c2ccc(C3[C@@H]4CN(Cc5cc(OC)cc(OC)c5)C[C@H]3N4)cc2)cc1` (some centres undefined), the IC50 is 6.55 µM and 25.8 µM.
As for `C(=C\c1ccc(C2[C@@H]3CN(Cc4nccs4)C[C@H]2N3)cc1)/c1ccccc1` (some centres undefined), the figure is 16.7 µM and 67.5 µM.
With `OC[C@H]1[C@@H](c2ccc(-c3ccc(F)cc3)cc2)[C@@H]2CN(CCC(F)(F)F)CCCCN12`, the concentration for half-maximal inhibition (IC50) is 72.8 µM.
As for `O=C(Nc1ccc(F)cc1)N1[C@@H]2CNC[C@H]1C2c1ccc(/C=C/c2ccccc2)cc1` (some centres undefined), the figure is 13.8 µM.
